Results on two compounds are retold here after patent publication US20160262894A1, “TISSUE REPAIR DEVICES AND SCAFFOLDS” (priority 2013, published 2016).

For assay [1], the system named is adenosine A2A knockout (A2AKO) mice. The assay is described as follows: in vivo bone formation by MicroCT in adenosine A2A knockout (A2AKO) mice, coated βTCP-HA scaffolds. To be noted: 4 weeks post-surgery, CGS21680 10 mM.
From the text: The remaining scaffold is shown in blue, and the new bone formation is shown in red.
In assay [2] the test system is 3 mm calvaria defect. Particulars: application at the site of the bone defect. From the text:
In vivo testing in mice: The 3-D scaffolds will be evaluated in a murine model using a 3 mm calvaria defect model.

Assay [3] concerns 3 mm calvaria defect. To be noted: murine model of calvarial bone regeneration; background statement; cited from earlier work.

Consider `CCNC(=O)[C@H]1O[C@@H](n2cnc3c(N)nc(NCCc4ccc(CCC(=O)O)cc4)nc32)[C@H](O)[C@@H]1O` [CGS21680], for which, in assay [1] (compared with dipyridamole-coated scaffolds), the resorption of scaffolds result is “greater”.

On to `OCCN(CCO)c1nc(N2CCCCC2)c2nc(N(CCO)CCO)nc(N3CCCCC3)c2n1` [dipyridamole], for which the “new bone growth at the site of a bone defect” value in the assay on 3 mm calvaria defect [2] is “promotes new bone growth”. Moreover, the bone regeneration entry in the assay on 3 mm calvaria defect [3] was “exponentially stimulates bone regeneration”. Besides, in assay [1] (collagen-coated βTCP-HA scaffolds, Dipyridamole 100 μM), the new bone formation result is “did not differ from that induced in saline- or CGS21680-coated surfaces”.
